Data published in patent US20240024490A1, “BIFUNCTIONAL MOLECULES FOR SELECTIVE MODIFICATION OF TARGET SUBSTRATES” (The Broad Institute, Inc., priority 2021, published 2024).
Like-named read-outs stand apart in the source and are kept apart here. Each block holds one molecule with its values, some of them ahead of it.

How the values were obtained:
Aurora A = target: T1, Aurora A (Homo sapiens, UniProt O14965); details: cited from earlier work; for Ki: read-out: Calculated Ki
T1 sequence (O14965 1-403): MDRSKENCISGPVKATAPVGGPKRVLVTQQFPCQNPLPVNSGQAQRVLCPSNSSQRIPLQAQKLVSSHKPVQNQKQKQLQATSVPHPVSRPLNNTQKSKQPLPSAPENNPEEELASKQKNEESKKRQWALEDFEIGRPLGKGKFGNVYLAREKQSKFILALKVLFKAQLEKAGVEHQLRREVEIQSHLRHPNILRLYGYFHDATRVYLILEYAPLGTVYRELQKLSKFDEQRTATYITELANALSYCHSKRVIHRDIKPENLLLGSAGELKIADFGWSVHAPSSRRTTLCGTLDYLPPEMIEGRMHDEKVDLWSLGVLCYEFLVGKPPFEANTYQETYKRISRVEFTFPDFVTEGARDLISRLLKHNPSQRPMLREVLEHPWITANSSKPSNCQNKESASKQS

Z-138 cells [1] = assay: Z-138 cell viability; type: cell-based; details: FIGS. 67-71
Z-138 cells [2] = assay: Z-138 cell viability; type: cell-based
From the text: Since PKC phosphorylates membrane-associated BTK with the C1 domain buried in the lipid bilayer, [5] Applicants aimed to characterize PHICS-mediated BTK phosphorylation by PKC in vitro in the absence of lipid bilayer. […] PEG4 linker, and benzolactam (FIG. 73A). […] One of the modified residues (T410) is located close to the ATP binding pocket, whereas other sites (S310, 5323, and 5378) are on the loops of the SH2 domain in BTK. […] To explore the biological consequences of these neo-phosphorylations, Applicants adopted a genetic approach where the phosphorylated Ser/Thr residues were mutated to aspartic acid, a phosphomimetic, and alanine as a control. […] [8] […] The following studies will be focused on further optimization of the anti-cancer potency of BTK and BCR-ABL targeting PKC-based PHICS molecules as well as on the detailed investigation of their mechanism of action.
Applicants assessed the viability of Z-138 cells after introduction of small molecules at various concentrations, see FIGS. 67-71. […]
Applicants found a non-linear dependency on Z-138 cell viability as a function of linker length and composition.

PDK1 [3] = target: T2, PDK1 (Homo sapiens, UniProt O15530); details: cited from earlier work
T2 sequence (O15530 1-556): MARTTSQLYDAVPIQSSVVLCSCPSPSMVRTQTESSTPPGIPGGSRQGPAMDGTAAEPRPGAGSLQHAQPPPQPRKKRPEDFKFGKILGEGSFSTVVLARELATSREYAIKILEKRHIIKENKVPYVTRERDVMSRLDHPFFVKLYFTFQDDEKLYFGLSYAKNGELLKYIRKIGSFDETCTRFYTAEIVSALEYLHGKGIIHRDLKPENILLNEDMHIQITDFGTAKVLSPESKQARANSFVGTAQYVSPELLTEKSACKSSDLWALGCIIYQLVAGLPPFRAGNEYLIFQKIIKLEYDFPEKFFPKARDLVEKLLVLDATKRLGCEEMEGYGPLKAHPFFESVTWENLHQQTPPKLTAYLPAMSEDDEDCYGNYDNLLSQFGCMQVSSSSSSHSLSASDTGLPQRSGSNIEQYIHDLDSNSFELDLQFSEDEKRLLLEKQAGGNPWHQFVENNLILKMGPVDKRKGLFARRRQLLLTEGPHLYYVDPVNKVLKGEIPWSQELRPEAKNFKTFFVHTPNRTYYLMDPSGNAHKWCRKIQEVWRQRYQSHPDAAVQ

JNK 2 = JNK 2 (Homo sapiens, UniProt P45984); details: cited from earlier work
JNK 2, sequence (P45984 whole entry, species assumed): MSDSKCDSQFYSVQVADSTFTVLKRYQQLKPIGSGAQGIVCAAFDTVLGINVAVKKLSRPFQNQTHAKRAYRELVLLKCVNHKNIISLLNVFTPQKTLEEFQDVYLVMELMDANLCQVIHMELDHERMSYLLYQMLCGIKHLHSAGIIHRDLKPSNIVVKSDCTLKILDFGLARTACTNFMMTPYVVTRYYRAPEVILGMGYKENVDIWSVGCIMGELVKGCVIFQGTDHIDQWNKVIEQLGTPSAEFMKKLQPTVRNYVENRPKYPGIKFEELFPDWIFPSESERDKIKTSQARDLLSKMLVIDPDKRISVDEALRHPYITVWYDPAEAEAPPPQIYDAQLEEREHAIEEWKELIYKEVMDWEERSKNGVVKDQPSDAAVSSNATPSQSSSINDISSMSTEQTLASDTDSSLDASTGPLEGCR

JNK 1 = JNK 1 (Homo sapiens, UniProt P45983); details: cited from earlier work
JNK 1, sequence (P45983 whole entry, species assumed): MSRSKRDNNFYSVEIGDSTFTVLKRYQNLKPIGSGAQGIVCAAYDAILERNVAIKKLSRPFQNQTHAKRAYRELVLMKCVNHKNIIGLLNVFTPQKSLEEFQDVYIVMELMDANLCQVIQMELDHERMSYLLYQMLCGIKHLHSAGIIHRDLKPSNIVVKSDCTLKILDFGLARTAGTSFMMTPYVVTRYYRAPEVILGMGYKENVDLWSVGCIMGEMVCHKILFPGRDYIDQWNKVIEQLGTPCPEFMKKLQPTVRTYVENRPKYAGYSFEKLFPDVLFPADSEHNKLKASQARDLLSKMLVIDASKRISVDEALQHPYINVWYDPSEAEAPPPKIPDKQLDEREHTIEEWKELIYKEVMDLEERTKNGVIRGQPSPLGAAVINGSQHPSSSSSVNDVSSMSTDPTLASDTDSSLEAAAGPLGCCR

HSP90 = details: cell free assay; cited from earlier work
Recombinant PKCζ = target: T3, Recombinant PKCζ (Homo sapiens, UniProt Q05513); details: cited from earlier work
T3 sequence (Q05513 1-592): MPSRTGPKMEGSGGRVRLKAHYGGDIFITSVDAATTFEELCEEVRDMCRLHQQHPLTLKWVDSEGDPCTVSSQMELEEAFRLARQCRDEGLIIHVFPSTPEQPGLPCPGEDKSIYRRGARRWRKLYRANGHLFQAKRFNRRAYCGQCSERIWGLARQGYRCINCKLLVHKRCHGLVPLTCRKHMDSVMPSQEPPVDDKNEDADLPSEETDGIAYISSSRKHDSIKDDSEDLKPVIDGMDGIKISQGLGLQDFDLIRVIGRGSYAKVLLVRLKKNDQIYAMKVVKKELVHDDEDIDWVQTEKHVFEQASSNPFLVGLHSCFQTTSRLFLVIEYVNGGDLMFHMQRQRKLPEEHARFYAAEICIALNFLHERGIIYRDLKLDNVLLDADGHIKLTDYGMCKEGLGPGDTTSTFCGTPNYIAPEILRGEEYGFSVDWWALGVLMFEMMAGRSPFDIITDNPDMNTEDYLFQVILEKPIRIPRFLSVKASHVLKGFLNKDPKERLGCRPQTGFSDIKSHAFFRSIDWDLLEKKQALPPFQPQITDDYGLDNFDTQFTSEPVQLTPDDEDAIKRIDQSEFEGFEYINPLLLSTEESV

PDK1 [4] = target: T2, PDK1; details: ITC; cited from earlier work
[5] = cited from earlier work
FGFR = assay: FGFR-FKBP phosphorylation by ABL and FGFR1/mTOR/G-CSF signaling; type: cell-based
From the text: Applicants expanded the scope of ABL targets by phosphorylating a receptor tyrosine kinase, FGFR by fusing an FKBP domain to the cytosolic portion of FGFR (FIG. 37).

HER2-Cter-FKBP construct = assay: Phosphorylation of HER2-FKBP construct by ABL in HEK293 cells; type: cell-based; details: 15 minutes, pY1221 HER2-specific antibody
HER2-Cter-FKBP = assay: Phosphorylation of HER2-Cter-FKBP by ABL in transfected HEK293 cells (pY1221 HER2-specific antibody); type: cell-based; details: 15 minutes of compound treatment, FIG. 74C
[6] = target: β1 subunit-containing AMPK (Homo sapiens, UniProt Q13131+Q9Y478); details: cited from earlier work
β1 subunit-containing AMPK, sequence (Q9Y478 whole entry): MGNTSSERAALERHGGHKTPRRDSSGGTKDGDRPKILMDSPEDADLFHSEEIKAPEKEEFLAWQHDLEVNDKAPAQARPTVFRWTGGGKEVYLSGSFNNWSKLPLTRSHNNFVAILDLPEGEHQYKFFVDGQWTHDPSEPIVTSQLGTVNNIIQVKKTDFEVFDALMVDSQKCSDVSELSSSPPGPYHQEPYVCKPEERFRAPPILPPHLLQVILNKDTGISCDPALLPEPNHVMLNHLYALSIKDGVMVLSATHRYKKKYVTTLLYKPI
β1 subunit-containing AMPK, sequence (Q13131 whole entry): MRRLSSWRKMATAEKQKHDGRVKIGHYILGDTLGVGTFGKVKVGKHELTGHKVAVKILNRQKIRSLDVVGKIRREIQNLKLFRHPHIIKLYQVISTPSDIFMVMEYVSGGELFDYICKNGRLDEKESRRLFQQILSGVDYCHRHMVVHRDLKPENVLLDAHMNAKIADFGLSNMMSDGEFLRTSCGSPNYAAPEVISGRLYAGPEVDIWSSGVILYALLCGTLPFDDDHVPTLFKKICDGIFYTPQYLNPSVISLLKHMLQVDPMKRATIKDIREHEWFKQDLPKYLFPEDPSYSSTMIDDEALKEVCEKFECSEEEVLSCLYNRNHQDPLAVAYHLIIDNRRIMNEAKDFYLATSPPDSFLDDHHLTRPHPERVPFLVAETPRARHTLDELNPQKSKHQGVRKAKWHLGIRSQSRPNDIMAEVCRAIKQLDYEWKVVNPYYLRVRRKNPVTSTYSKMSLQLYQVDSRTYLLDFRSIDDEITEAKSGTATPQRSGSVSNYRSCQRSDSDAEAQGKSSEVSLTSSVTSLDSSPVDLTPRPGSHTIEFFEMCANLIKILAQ
β1 subunit-containing AMPK, sequence (P54619 whole entry partner): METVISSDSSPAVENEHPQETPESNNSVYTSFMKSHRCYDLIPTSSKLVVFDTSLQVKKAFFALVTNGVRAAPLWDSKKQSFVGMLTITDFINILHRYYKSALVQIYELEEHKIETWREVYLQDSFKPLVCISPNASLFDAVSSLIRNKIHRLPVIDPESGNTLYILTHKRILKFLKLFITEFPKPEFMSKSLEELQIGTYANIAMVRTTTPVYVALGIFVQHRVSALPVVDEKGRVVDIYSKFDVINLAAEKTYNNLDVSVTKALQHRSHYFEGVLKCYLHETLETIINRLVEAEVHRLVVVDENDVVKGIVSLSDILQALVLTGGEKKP

[7] = target: β2 subunit-containing AMPK (Homo sapiens, UniProt O43741+Q13131); details: cited from earlier work
β2 subunit-containing AMPK, sequence (O43741 whole entry): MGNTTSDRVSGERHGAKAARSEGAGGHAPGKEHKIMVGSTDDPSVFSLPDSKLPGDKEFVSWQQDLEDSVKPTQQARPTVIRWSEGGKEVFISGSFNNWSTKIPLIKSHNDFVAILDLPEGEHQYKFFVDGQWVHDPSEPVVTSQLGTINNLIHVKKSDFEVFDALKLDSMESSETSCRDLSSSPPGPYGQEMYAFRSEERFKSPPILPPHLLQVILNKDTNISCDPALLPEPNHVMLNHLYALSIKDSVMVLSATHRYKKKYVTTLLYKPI
β2 subunit-containing AMPK, sequence (Q13131 whole entry): as the sequence (Q13131 whole entry) above
β2 subunit-containing AMPK, sequence (P54619 whole entry partner): as the sequence (P54619 whole entry partner) above

K562 cells = assay: K562 cell viability; type: cell-based
ABL myristoyl domain = details: cited from earlier work
AMPK = details: cited from earlier work

Molecule: O=C(O)c1cc(-c2cccc(F)c2)nc2ccccc12 [compound 26]
- IC50 (Aurora A): 75.9 µM
- Ki (Aurora A): 16.5 µM

Molecule: CNCc1ccc(COc2ccc3c(c2)N(C)C(C(C)C)C(=O)NC(CO)C3)cc1 (stereo not shown) [benzolactam]
- effect on Z-138 cell viability (Z-138 cells [1]): did not have any significant effect
- effect on Z-138 cell viability (Z-138 cells [2]): did not have any significant effect

Molecule: O=C(O)/C=C(/CCc1cccc(Cl)c1)c1ccccc1 [3Z]
- AC50 (PDK1 [3]; read-out: AC50): 9.5 µM

Molecule: CCOc1nc(C(=O)NCC2CCN(Cc3sc(-c4ccccc4)nc3C)CC2)cc(N)c1C#N [compound 6]
- IC50 (JNK 2): < 0.0026 µM
- IC50 (JNK 1): < 0.0018 µM

Molecule: O=C(O)c1cc(-c2cccc(C(F)(F)F)c2)nc2ccccc12 [compound 34]
- IC50 (Aurora A): 26.5 µM
- Ki (Aurora A): 5.7 µM

Molecule: Alvespimycin
- IC50 (HSP90): 0.062 µM

Molecule: CNc1ncc2c(n1)N(C1CCC(O)C1)C(=O)N(c1cc(NC(=O)c3ccc(CN4CCN(C)CC4)c(C(F)(F)F)c3)ccc1C)C2 (stereo not shown) [compound 9]
- IC50 (JNK 2): 1.3 µM
- IC50 (JNK 1): 0.97 µM

Molecule: Cc1ccc(CC/C(=C\C(=O)O)c2ccccc2)c(Cl)c1 [8E]
- AC50 (PDK1 [3]): n.e.

Molecule: CC(C)(C)C1=NN(c2ccc(Cl)cc2Cl)C(c2ccc(O)cc2)C1 (stereo not shown) [1n]
- cell-free assay, % inhibition at 62.5 μM (Recombinant PKCζ): 71.0%

Molecule: CC(C)c1ccc(N2N=C(C(C)(C)C)CC2c2ccc(O)cc2)cc1 (stereo not shown) [1f]
- cell-free assay, % inhibition at 62.5 μM (Recombinant PKCζ): 54.9%

Molecule: CC(C)(C)C1=NN(c2ccc(F)cc2F)C(c2ccc(O)cc2)C1 (stereo not shown) [1o]
- cell-free assay, % inhibition at 62.5 μM (Recombinant PKCζ): 68.0%

Molecule: O=C(O)/C=C(\CCc1ccc(F)cc1)c1ccccc1 [4E]
- AC50 (PDK1 [3]): n.e.

Molecule: CC(C)(C)C1=NN(c2ccccc2Cl)C(c2ccc(O)cc2)C1 (stereo not shown) [1l]
- cell-free assay, % inhibition at 62.5 μM (Recombinant PKCζ): 57.1%

Molecule: O=C(O)/C=C(/CCc1c[nH]c2ccccc12)c1ccccc1 [13Z]
- TΔS (PDK1 [4]): 2.60 kcal/mol
- ΔG (PDK1 [4]): -6.73 kcal/mol
- ΔH (PDK1 [4]): -4.09 kcal/mol
- ΔH/ΔG (PDK1 [4]): 60.8%
- AC50 (PDK1 [3]; read-out: AC50): 7.6 µM

Molecule: O=C(NOCC(O)CO)c1ccc(F)c(F)c1Nc1ccc(I)cc1F (stereo not shown) [Compound 35]
- Sol (pH 6.5) [5]: 255, μg/mL

Molecule: CC[C@H](C(=O)N1CCCC[C@H]1C(=O)O[C@@H](CCc1ccc(OC)c(OC)c1)c1cccc(OCC(=O)NCCOCCOCCOCCOCCC(=O)NC2=NN(c3ccc(Cl)c(Cl)c3)CC2)c1)c1cc(OC)c(OC)c(OC)c1 [VS1043]
- FGFR phosphorylation / FGFR1/mTOR/G-CSF signaling (FGFR): activates FGFR1/mTOR/G-CSF signaling in a dose dependent manner
- phosphorylation of HER2-Cter-FKBP construct (HER2-Cter-FKBP construct): significant phosphorylation
- phosphorylation of HER2-Cter-FKBP construct (HER2-Cter-FKBP): significant phosphorylation

Molecule: MT47-100
- pKi as an activator [6]: 5.4
- pKi as an allosteric inhibitor [7]: 4.6

Molecule: CC(C)(C)C1=NN(c2ccc(Br)cc2)C(c2ccc(O)cc2)C1 (stereo not shown) [1c]
- cell-free assay, % inhibition at 62.5 μM (Recombinant PKCζ): 93.2%
- IC50 (Recombinant PKCζ; read-out: cell-free assay, IC50 ± SD): 11.4 ± 1.25 µM

Molecule: CCc1ccc(CC/C(=C/C(=O)O)c2ccccc2)cc1 [10Z]
- AC50 (PDK1 [3]; read-out: AC50): > 50 µM

Molecule: O=C(NOC[C@H](O)CO)c1ccc(F)c(F)c1Nc1ccc(I)cc1F [Mirdametinib]
- Sol (pH 6.5) [5]: 190 μg/mL

Molecule: CCc1ccc(CC/C(=C\C(=O)O)c2ccccc2)cc1 [10E]
- AC50 (PDK1 [3]): n.e.

Molecule: O=C(O)/C=C(/CCc1ccc(Br)cc1)c1ccccc1 [5Z]
- TΔS (PDK1 [4]): 3.20 kcal/mol
- ΔG (PDK1 [4]): -6.32 kcal/mol
- ΔH (PDK1 [4]): -3.07 kcal/mol
- ΔH/ΔG (PDK1 [4]): 46.6%
- AC50 (PDK1 [3]; read-out: AC50): 9.8 µM

Molecule: CC(C)(C)C1=NN(c2cccc(F)c2)C(c2ccc(O)cc2)C1 (stereo not shown) [1i]
- cell-free assay, % inhibition at 62.5 μM (Recombinant PKCζ): 98.1%

Molecule: CC(C)(C)C1=NN(c2ccccc2F)C(c2ccc(O)cc2)C1 (stereo not shown) [1m]
- cell-free assay, % inhibition at 62.5 μM (Recombinant PKCζ): 57.6%

- EC50 (K562 cells; unit inferred): ≥ 10 µM
- EC50 (K562 cells; unit inferred, listed as Cpdl): > 10 µM
Molecule: O=C1NC(=O)C(c2cn(-c3ccccc3)nc2-c2ccc(F)cc2)N1 (stereo not shown) [Cpd1]

Molecule: O=C(O)/C=C(/CCc1ccc(C(F)(F)F)cc1)c1ccccc1 [6Z]
- TΔS (PDK1 [4]): 4.79 kcal/mol
- ΔG (PDK1 [4]): -6.73 kcal/mol
- ΔH (PDK1 [4]): -1.84 kcal/mol
- ΔH/ΔG (PDK1 [4]): 26.5%
- AC50 (PDK1 [3]; read-out: AC50): 7.1 µM

Molecule: O=C(O)/C=C(/CCc1ccc2ccccc2c1)c1ccccc1 [12Z]
- TΔS (PDK1 [4]): 1.96 kcal/mol
- ΔG (PDK1 [4]): -6.67 kcal/mol
- ΔH (PDK1 [4]): -4.56 kcal/mol
- ΔH/ΔG (PDK1 [4]): 68.3%
- AC50 (PDK1 [3]; read-out: AC50): 6 µM

Molecule: CCCN(Cc1ccc(-c2ccccc2-c2nn[nH]n2)cc1)c1nc2ccccc2s1 [compound 2]
- pIC50 (ABL myristoyl domain): 6.5

Molecule: CCCN(Cc1ccc(-c2ccccc2-c2nn[nH]n2)cc1)c1nc2ccccc2s1 [Cpd2]
- EC50 (K562 cells): ~1 µM

Molecule: CCCCN(Cc1ccc(-c2ccccc2-c2nn[nH]n2)cc1)c1nc(C)cc(C)n1 [Cpd3]
- EC50 (K562 cells): ~0.31 µM

Molecule: O=C(NOCC(O)CO)c1ccc(F)c(F)c1Nc1ccc(I)cc1F (racemic) [Compound 33]
- Sol (pH 6.5) [5]: 147 μg/mL

Molecule: CC(C)(C)C1=NN(c2ccc(C(=O)O)cc2)C(c2ccc(O)cc2)C1 (stereo not shown) [1g]
- cell-free assay, % inhibition at 62.5 μM (Recombinant PKCζ): 47.9%

Molecule: Cc1ccc(N2N=C(C(C)(C)C)CC2c2ccc(O)cc2)c(C)c1 (stereo not shown) [1p]
- cell-free assay, % inhibition at 62.5 μM (Recombinant PKCζ): 59.9%

Molecule: N#Cc1c(O)c2c(-c3ccc(-c4ccccc4O)cc3)csc2[nH]c1=O [A769662]
- pEC50 (AMPK): 6.0

Molecule: CC(C)(C)C1=NN(c2ccc(C(F)(F)F)cc2)C(c2ccc(O)cc2)C1 (stereo not shown) [1d]
- cell-free assay, % inhibition at 62.5 μM (Recombinant PKCζ): 94.2%

Molecule: C=CC(=O)N1CCC[C@@H](n2nc(-c3ccc(Oc4ccccc4)cc3)c3c(N)ncnc32)C1 [Ibrutinib]
- effect on Z-138 cell viability (Z-138 cells [1]): did not have any significant effect
- effect on Z-138 cell viability (Z-138 cells [2]): did not have any significant effect

Molecule: O=C(Nc1nnc(SCc2ccc([N+](=O)[O-])cc2)s1)c1ccccc1Cl [6E]
- AC50 (PDK1 [3]): n.e.
